Patent US10421778B2, “Isoform-selective lysine deacetylase inhibitors” (WASHINGTON UNIVERSITY, priority 2015, dated 2019)
Positions of bridges follow the written chain, without caps; N, C: chain ends. Non-standard residues stand in square brackets, D forms with d. Residues, ends and D or L forms follow the SMILES beside them. *: point of attachment. GABA = NCCCC(=O)O; NHOH = ON*

What was measured:
Assay in all cases: KDAC inhibition assay, Caliper EZ Reader II
Type in all cases: biochemical
recombinant human KDAC1 = target: T1, recombinant human KDAC1 (Homo sapiens, UniProt Q13547); conditions: for KDAC Inhibition Activity KDAC1 (% inhibition): % inhibition at 30 μM
T1 construct: purchased BPS Bioscience
T1 sequence (Q13547 whole entry): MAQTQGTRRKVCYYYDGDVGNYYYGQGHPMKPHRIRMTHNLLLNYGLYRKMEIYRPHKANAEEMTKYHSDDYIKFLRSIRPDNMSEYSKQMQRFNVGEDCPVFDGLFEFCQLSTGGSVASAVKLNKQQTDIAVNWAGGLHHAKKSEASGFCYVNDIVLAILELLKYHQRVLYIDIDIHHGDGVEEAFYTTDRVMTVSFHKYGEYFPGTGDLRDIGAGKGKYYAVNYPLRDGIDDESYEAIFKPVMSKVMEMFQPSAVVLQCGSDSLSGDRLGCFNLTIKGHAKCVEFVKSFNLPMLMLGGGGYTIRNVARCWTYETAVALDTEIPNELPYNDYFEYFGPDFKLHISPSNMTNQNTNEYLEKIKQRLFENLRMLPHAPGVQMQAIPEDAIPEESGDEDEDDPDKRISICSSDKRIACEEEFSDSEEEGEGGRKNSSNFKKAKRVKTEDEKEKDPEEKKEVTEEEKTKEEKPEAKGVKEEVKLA

recombinant human KDAC6 = target: T2, recombinant human KDAC6 (Homo sapiens, UniProt Q9UBN7); conditions: for KDAC Inhibition Activity KDAC6 (% inhibition): % inhibition at 30 μM
T2 construct: purchased BPS Bioscience
T2 sequence (Q9UBN7 1-1215): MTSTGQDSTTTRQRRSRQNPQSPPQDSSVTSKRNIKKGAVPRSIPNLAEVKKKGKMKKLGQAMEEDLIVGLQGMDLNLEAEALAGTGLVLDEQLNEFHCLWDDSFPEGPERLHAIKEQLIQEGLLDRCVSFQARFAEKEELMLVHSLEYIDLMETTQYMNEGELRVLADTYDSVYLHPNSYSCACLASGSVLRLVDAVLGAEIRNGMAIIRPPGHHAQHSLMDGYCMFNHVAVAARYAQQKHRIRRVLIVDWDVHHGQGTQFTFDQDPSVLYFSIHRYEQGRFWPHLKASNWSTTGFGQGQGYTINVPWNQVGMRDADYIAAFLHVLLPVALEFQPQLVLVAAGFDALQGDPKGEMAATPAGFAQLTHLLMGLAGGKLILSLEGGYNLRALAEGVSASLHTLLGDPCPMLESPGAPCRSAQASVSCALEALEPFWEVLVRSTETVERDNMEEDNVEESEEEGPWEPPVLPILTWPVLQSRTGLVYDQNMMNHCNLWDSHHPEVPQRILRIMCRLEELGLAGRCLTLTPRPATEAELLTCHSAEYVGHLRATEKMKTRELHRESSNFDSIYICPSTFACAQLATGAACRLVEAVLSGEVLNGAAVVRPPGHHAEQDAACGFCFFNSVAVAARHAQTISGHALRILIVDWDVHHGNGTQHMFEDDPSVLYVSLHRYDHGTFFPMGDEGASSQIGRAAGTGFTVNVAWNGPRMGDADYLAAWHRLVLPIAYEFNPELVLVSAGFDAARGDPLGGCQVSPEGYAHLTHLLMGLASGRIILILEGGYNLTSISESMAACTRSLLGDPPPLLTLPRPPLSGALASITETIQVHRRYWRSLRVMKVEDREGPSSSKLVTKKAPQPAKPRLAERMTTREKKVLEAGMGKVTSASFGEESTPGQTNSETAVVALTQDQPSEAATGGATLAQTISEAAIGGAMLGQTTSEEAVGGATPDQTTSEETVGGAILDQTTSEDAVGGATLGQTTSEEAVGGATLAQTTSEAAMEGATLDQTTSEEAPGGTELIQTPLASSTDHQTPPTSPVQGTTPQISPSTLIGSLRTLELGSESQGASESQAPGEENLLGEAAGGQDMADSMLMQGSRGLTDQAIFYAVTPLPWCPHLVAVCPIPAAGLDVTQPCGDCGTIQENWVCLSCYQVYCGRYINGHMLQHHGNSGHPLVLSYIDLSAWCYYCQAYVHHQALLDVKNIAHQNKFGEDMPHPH

recombinant human KDAC3 = target: T3, recombinant human KDAC3 (Homo sapiens, UniProt O15379); conditions: for KDAC Inhibition Activity KDAC3 (% inhibition): % inhibition at 30 μM
T3 construct: purchased BPS Bioscience
T3 sequence (O15379 whole entry): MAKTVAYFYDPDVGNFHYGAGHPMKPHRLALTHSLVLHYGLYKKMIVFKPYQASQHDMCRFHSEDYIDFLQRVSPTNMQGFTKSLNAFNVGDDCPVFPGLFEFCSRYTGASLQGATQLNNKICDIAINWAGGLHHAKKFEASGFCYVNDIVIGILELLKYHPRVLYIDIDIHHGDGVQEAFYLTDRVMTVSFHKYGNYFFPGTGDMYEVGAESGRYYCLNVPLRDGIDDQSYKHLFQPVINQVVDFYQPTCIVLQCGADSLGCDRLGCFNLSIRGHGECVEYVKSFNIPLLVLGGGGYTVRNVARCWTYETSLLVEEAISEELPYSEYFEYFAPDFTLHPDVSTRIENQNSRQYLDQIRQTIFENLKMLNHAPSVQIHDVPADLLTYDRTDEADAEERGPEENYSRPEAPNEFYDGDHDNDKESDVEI
T3 sequence (Q9Y618 395-489 partner limits assumed): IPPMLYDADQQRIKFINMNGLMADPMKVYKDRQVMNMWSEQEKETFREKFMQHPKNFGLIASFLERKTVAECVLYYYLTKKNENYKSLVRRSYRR

recombinant human KDAC8 = target: T4, recombinant human KDAC8 (Homo sapiens, UniProt Q9BY41); conditions: for KDAC Inhibition Activity KDAC8 (% inhibition): % inhibition at 30 μM
T4 construct: purchased BPS Bioscience
T4 sequence (Q9BY41 1-377): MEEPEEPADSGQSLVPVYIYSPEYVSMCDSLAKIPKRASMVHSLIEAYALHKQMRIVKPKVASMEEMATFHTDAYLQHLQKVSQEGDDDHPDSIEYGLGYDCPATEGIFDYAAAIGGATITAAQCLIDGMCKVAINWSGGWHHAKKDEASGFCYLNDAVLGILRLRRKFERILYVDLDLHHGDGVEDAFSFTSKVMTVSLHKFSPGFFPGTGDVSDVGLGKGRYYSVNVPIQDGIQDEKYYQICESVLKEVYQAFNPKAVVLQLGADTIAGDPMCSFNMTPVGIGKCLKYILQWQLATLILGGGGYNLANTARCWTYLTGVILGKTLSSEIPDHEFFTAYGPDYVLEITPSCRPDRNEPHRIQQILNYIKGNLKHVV

Row | Compound | KDAC Inhibition Activity KDAC1 (% inhibition) (recombinant human KDAC1) | KDAC Inhibition Activity KDAC6 (% inhibition) (recombinant human KDAC6) | KDAC Inhibition Activity KDAC3 (% inhibition) (recombinant human KDAC3) | KDAC Inhibition Activity KDAC8 (% inhibition) (recombinant human KDAC8) | inhibition at 30 µM (recombinant human KDAC1) | inhibition at 30 µM (recombinant human KDAC6) | inhibition at 30 µM (recombinant human KDAC3) | inhibition at 30 µM (recombinant human KDAC8)
1 | Cyclo-^DAsp(Pro-^DPro-Val)-NHCH2CH2CH2S(═O)CH3 [Compound 20b] | 1% | 1% | 16% | 10% |  |  |  | 
2 | Cyclo-Asp(^DPro-Pro-Val)-NHCH2CH2CH2COOH [Compound 13a] | Not active | Not active | Not active | 3% |  |  |  | 
3 | Cyclo-^DAsp(^DPro-Pro-Val)-NHCH2CH2CH2CONHOH [Compound 14b] | 12.5% | 53% | 27% | 21% |  |  |  | 
4 | Cyclo-^DAsp(Pro-^DPro-Val)-NHCH2CH2CH2COOMe [Compound 23b] | 1% | 5% | Not active | 7% |  |  |  | 
5 | Cyclo-^DAsp(^DPro-Pro-Val)-NHCH2CH2CH2COOH [Compound 13b] | 2.5% | Not active | Not active | Not active |  |  |  | 
6 | Cyclo-^DAsp(^DPro-Pro-Val)-NHCH2CH2CH2S(═O)2CH3 [Compound 9b] | 4% | 1% | 3% | 22% |  |  |  | 
7 | Cyclo-Asp(^DPro-Pro-Val)-NHCH2CH2CH2COOMe [Compound 12a] | 54.6% | Not active | 2% | Not active |  |  |  | 
8 | Cyclo-^DAsp(Pro-^DPro-Val)-NHCH2CH2SH [Compound 17b] | Not active | 18% | Not active | Not active |  |  |  | 
9 | Cyclo-^DAsp(^DPro-Pro-Val)-NHCH2CH2CH2S(═O)CH3 [Compound 8b] | 3.5% | 3% | 5% | 38% |  |  |  | 
10 | Cyclo-Asp(^DPro-Pro-Val)-NHCH2CH2SH [Compound 5a] | Not active | 14% | Not active | 12% |  |  |  | 
11 | Cyclo-^DAsp(^DPro-Pro-Val)-OBn [Compound 1b] | 7% | 8% | 10% | 9% |  |  |  | 
12 | Cyclo-Asp(Pro-^DPro-Val)-NHCH2CH2CH2SH [Compound 18a] | Not active | 19% | 1% | 4% |  |  |  | 
13 | CC(C)[C@@H]1NC(=O)[C@@H]2CCCN2C(=O)[C@H]2CCCN2C(=O)C[C@@H](C(=O)NCCCC(=O)NO)NC1=O [Compound 14a, Cyclo-Asp(^DPro-Pro-Val)-NHCH2CH2CH2CONHOH] ([dP]PVD[GABA]-{NHOH}; lactam N-4) |  |  |  |  | 4.5% | 82% | 67% | 31%
14 | Cyclo-Asp(Pro-^DPro-Val)-NHCH2CH2S—SCH2CH2NH2 [Compound 26a] | 15% | 10% | 5% | 10% |  |  |  | 
15 | Cyclo-Asp(^DPro-Pro-Val)-NHCH2CH2CH2S(═O)CH3 [Compound 8a] | Not active | Not active | Not active | 30% |  |  |  | 
16 | Cyclo-Asp(^DPro-Pro-Val)-NHCH2CH2S—SCH2CH2NH2 [Compound 15a] | Not active | Not active | Not active | 1% |  |  |  | 
17 | Cyclo-^DAsp(^DPro-Pro-Val)-NHCH2CH2CH2SCH3 [Compound 7b] | 1.5% | Not active | Not active | 28% |  |  |  | 
18 | Cyclo-^DAsp(Pro-^DPro-Val)-NHCH2CH2CH2SH [Compound 18b] | 9.5% | 48% | 15% | Not active |  |  |  | 
19 | Cyclo-Asp(Pro-^DPro-Val)-NHCH2CH2CH2SCH3 [Compound 19a] | 2% | Not active | Not active | 25% |  |  |  | 
20 | Cyclo-Asp(Pro-^DPro-Val)-NHCH2CH2CH2OH [Compound 22a] | Not active | Not active | 7% | Not active |  |  |  | 
21 | Cyclo-Asp(^DPro-Pro-Val)-NHCH2CH2CH2S(═O)2CH3 [Compound 9a] | Not active | Not active | 4% | 17% |  |  |  | 
